Assay results reported in ChEMBL document CHEMBL5696442, “Discovery of type II inhibitors of TGFβ-activated kinase 1 (TAK1) and mitogen-activated protein kinase kinase kinase kinase 2 (MAP4K2)” (J Med Chem, 2015).

How the values were obtained:
[1] = biological target: Uncharacterized serine/threonine-protein kinase SBK3 (Homo sapiens) (UniProt P0C264); assay: Inhibition of SgK110 (unknown origin) at 1 uM by Ambit Kinomescan binding assay relative to control
[2] = biological target: TRAF2 and NCK-interacting protein kinase (Homo sapiens) (UniProt Q9UKE5); assay: Inhibition of TNIK (unknown origin) at 1 uM by Ambit Kinomescan binding assay relative to control
[3] = biological target: T1, Mitogen-activated protein kinase 13 (Homo sapiens) (UniProt O15264); assay: Inhibition of p38delta (unknown origin) at 10 uM by Ambit Kinomescan binding assay relative to control; values are per cent of control
T1 sequence (whole entry): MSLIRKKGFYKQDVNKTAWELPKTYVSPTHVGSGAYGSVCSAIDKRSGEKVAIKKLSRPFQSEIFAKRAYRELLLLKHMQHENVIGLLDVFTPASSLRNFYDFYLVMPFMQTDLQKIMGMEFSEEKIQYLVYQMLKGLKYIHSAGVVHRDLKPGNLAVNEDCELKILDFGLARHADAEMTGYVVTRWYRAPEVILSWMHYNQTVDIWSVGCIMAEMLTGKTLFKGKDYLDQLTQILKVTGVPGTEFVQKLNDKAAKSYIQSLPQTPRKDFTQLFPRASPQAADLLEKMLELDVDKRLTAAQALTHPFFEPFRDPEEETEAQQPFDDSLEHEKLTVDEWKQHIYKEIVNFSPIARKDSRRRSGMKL

[4] = biological target: T2, PAN2-PAN3 deadenylation complex subunit PAN3 (Homo sapiens) (UniProt Q58A45); assay: Inhibition of PAN3 KD labeling site in human Huh-7 cells at 1 uM by KiNativ Profiling analysis relative to control; format: cell-based
T2 sequence (whole entry): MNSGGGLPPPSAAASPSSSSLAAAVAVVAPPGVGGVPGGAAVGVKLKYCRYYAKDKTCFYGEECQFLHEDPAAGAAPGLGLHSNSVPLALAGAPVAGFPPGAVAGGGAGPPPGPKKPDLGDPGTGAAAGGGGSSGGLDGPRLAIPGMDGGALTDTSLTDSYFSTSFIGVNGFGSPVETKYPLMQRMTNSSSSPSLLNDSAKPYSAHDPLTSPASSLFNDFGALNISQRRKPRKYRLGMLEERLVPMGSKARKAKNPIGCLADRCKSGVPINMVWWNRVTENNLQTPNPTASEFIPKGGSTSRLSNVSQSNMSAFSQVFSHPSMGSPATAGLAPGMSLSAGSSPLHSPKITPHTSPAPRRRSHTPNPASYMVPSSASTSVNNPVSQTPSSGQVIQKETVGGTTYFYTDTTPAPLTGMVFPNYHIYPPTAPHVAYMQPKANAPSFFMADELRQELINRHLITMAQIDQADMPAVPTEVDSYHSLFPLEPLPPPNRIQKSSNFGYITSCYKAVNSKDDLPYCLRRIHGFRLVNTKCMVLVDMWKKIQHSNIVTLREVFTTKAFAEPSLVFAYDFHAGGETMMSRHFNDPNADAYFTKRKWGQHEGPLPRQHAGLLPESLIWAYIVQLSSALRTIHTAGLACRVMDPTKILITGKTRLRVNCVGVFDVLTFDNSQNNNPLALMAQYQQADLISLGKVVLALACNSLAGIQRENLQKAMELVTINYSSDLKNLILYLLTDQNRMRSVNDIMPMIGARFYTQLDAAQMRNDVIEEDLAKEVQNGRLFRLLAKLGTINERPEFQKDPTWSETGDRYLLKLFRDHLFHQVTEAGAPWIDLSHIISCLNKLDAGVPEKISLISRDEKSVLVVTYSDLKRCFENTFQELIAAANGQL

[5] = biological target: Tyrosine-protein kinase ABL2 (Homo sapiens, UniProt P42684); assay: Inhibition of ARG ACT labeling site in human A-375 cells at 0.05 uM by KiNativ Profiling analysis relative to control; format: cell-based
[6] = test system: Tyrosine-protein kinase ABL1 (Homo sapiens), P00519 [Y253F]; assay: Inhibition of ABL1 Y253F mutant (unknown origin) at 10 uM by Ambit Kinomescan binding assay relative to control
[7] = biological target: T3, Phosphatidylinositol 5-phosphate 4-kinase type-2 gamma (Homo sapiens) (UniProt Q8TBX8); assay: Inhibition of PIP5K2C ATP labeling site harbouring VKELPTLKDMDFLNK in human Huh-7 cells at 1 uM by KiNativ Profiling analysis relative to control; format: cell-based
T3 sequence (whole entry): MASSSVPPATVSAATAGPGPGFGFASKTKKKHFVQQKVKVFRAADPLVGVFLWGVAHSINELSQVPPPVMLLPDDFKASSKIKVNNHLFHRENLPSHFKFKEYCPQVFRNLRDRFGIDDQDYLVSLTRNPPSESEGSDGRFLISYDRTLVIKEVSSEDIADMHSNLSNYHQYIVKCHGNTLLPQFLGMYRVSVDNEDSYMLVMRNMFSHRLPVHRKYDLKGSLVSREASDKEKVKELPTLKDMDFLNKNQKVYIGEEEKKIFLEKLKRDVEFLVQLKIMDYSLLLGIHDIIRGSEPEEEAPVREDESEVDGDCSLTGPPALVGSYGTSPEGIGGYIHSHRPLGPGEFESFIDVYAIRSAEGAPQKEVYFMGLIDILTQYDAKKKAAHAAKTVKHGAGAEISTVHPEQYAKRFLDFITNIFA

[8] = biological target: T4, Serine/threonine-protein kinase TBK1 (Homo sapiens) (UniProt Q9UHD2); assay: Inhibition of TBK1 K2 labeling site in human Huh-7 cells at 1 uM by KiNativ Profiling analysis relative to control; format: cell-based
T4 sequence (whole entry): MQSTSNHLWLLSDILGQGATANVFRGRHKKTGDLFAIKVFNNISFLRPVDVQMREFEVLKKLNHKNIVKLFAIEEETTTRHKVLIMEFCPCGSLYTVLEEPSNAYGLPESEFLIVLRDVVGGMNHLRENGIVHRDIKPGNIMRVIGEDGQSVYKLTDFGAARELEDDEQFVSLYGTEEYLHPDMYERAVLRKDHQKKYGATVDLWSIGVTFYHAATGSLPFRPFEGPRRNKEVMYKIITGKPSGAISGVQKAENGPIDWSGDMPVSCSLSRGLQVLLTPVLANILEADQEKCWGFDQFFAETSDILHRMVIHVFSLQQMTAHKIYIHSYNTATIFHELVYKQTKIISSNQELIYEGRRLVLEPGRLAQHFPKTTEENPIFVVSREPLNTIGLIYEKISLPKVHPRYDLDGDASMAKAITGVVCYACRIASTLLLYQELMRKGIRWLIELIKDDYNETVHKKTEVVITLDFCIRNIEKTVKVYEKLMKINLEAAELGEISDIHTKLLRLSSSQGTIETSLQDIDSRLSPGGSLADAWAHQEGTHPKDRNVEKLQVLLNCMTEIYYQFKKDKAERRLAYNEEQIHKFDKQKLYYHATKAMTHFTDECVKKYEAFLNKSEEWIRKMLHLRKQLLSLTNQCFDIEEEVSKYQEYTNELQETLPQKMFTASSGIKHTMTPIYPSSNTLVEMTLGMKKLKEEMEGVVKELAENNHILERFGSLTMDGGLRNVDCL

Sequence of TRAF2 and NCK-interacting protein kinase (Homo sapiens) (Q9UKE5 whole entry, looked up): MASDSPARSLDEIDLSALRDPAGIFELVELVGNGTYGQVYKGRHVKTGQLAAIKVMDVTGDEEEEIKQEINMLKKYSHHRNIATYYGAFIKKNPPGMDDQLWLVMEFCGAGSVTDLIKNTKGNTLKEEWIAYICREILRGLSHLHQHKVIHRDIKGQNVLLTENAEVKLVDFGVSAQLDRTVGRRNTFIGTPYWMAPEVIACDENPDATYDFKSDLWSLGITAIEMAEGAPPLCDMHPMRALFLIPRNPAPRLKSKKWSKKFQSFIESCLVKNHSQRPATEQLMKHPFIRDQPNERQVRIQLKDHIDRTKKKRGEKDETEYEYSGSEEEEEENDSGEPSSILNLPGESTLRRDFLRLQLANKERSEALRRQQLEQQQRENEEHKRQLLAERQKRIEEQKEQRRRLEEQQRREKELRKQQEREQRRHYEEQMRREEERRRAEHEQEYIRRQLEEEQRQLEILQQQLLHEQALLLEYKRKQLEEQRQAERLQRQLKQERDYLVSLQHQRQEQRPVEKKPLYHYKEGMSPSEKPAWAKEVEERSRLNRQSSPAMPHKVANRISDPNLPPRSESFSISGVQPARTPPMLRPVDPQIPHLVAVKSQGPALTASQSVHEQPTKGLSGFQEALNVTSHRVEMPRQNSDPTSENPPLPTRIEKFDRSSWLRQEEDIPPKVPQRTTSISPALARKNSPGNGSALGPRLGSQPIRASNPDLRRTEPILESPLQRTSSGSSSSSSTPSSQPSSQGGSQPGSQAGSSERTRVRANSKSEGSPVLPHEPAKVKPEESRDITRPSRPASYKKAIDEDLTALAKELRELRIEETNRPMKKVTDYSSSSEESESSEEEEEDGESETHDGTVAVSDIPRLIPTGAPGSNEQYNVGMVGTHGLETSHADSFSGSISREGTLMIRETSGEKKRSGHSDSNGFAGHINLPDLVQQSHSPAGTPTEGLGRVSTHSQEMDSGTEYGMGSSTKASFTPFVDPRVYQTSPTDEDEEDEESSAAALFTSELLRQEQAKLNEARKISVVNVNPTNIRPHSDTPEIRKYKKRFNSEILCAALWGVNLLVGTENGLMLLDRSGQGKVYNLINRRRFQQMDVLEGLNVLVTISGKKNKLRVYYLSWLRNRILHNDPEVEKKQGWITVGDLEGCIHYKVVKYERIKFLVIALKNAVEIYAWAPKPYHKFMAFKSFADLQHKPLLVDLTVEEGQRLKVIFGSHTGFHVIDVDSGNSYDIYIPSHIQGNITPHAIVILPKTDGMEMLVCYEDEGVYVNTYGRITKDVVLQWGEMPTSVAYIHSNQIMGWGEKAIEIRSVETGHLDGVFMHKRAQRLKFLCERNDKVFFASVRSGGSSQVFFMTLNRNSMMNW
Sequence of Tyrosine-protein kinase ABL2 (P42684 whole entry): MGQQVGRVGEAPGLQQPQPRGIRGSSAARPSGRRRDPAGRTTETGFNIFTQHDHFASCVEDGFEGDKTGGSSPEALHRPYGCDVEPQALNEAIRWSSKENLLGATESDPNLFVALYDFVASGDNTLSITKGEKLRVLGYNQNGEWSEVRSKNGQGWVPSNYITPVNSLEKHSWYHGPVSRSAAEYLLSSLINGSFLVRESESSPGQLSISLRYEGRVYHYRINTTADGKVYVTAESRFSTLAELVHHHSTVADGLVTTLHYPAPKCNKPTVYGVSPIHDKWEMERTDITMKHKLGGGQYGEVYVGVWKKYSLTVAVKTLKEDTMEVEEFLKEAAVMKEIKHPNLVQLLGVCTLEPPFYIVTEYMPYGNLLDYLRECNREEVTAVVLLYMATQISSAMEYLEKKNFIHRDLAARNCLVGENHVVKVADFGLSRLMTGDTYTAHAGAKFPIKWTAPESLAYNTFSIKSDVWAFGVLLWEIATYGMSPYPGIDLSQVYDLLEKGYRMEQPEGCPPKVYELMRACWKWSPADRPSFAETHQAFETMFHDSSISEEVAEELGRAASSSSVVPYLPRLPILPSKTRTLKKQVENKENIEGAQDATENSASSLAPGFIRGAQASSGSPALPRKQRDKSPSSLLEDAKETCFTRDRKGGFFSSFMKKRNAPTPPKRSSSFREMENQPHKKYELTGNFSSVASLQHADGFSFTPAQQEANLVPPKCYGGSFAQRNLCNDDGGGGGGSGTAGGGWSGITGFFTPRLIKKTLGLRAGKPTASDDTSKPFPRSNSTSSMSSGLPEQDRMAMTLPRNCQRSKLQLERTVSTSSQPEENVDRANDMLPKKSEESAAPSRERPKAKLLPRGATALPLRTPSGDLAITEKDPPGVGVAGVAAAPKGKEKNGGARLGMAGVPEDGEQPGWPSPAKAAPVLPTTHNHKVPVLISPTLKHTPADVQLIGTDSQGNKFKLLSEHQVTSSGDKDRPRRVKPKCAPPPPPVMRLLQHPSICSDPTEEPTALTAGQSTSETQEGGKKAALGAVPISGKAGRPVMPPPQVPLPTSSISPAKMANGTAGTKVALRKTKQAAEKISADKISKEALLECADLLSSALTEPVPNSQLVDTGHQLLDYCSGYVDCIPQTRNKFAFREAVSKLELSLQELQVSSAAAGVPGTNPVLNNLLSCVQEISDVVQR
Sequence of Uncharacterized serine/threonine-protein kinase SBK3 (Homo sapiens) (P0C264 whole entry): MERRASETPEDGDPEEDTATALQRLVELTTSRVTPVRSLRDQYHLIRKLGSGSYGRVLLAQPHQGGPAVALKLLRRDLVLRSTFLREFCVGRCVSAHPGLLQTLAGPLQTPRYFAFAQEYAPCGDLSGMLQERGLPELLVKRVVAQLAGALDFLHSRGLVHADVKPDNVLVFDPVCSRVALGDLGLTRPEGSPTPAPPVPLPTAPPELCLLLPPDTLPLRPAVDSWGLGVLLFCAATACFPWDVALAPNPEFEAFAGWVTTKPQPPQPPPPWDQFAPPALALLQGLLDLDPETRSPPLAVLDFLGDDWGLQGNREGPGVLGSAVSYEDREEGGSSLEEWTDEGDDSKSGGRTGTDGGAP

Row | SMILES | inhibition [1] [%] | inhibition [2] [%] | percent of control [3] [%] | inhibition [4] [%] | inhibition [5] [%] | inhibition [6] [%] | inhibition [7] [%] | inhibition [8] [%]
1 | CCN1CCN(Cc2ccc(NC(=O)c3ccc(C)c(/C=C/c4cnc5[nH]ccc5c4OC)c3)cc2C(F)(F)F)CC1 | 45 | 14 |  |  |  |  |  | 
2 | CCN1CCN(Cc2ccc(NC(=O)c3ccc(C)c(Oc4ccnc5[nH]ccc45)c3)cc2C(F)(F)F)CC1 |  |  | 0.55 | 13.4 | 88.5 | 1.1 | 2.9 | 17.7
